Assay results from patent US20130149392A1, “METHOD OF TREATING NON-SMALL CELL LUNG CANCER WITH BIS-(THIOHYDRAZIDE)AMIDE COMPOUNDS” (SYNTA PHARMACEUTICALS CORP., priority 2011, published 2013).

Test system: Stage IIIB or Stage IV Non-Small Cell Lung Cancer (NSCLC)
Experiment: Phase 2 clinical trial of Compound (1) (STA-4783, elesclomol) with paclitaxel and carboplatin vs paclitaxel and carboplatin; PFS and OS by baseline LDH
Type: in vivo, human
Method: A Phase 2 Clinical Trial of Compound (1), or STA-4783 (elesclomol) in combination with paclitaxel and carboplatin for the treatment of chemotherapy naive patients with Stage IIIB or Stage IV Non-Small Cell Lung Cancer (NSCLC) was performed. It was a multicenter, randomized, double-blinded, 2-arm study evaluating the recommended Phase 2 dose of STA-4783 (elesclomol) and paclitaxel and AUC=6 mg·min/mL carboplatin as compared with the recommended Phase 2 dose of paclitaxel and AUC=6 mg·min/mL carboplatin.
Both progression-free survival (PFS) and overall survival (OS) were improved in the low baseline LDH (≦0.8 ULN) population (where ULN is Upper Limit of Normal, which in at least one laboratory was 234 units/L, significant deviation from which was low).
Table 1 presents PFS outcomes for ITT (Intent To Treat) population patients with high, normal and low baseline LDH levels. […] In patients with low baseline LDH levels, PFS was improved for treatment, with a median of 4.6 vs. 3.1 months (HR=0.88), where HR mean Hazard Ratio. In patients with normal baseline LDH, median PFS is similar for treatment and control arms (3.3 and 4.0 months, respectively), with a HR of 1.17. In patients with high baseline LDH, median PFS was 2.8 and 6.3 months for treatment and control arms, respectively (HR=[…])
Table 2 presents a summary of the OS analyses for the ITT population with high, normal and low baseline LDH levels. In patients with low baseline LDH levels, OS was improved for treatment, with a median of 10.7 vs. 8.5 months (HR=0.74). In patients with normal baseline LDH, median OS is similar for treatment and control arms (8.4 and 8.4 months, respectively), with a HR of 0.91. In patients with high baseline LDH, median […] was 5 and 10 months for treatment and control arms, respectively (HR=1.64)

[1] = elevated LDH (>1 ULN) population
[2] = low baseline LDH (≦0.8 ULN) population

## CN(NC(=O)CC(=O)NN(C)C(=S)c1ccccc1)C(=S)c1ccccc1 [Compound (1), elesclomol]
[1]
  overall survival (OS), result in words: negative impact
  progression-free survival (PFS), result in words: negative impact
[2]
  overall survival (OS), result in words: improved
  progression-free survival (PFS), result in words: improved
